Test results from ChEMBL document CHEMBL4308841, “Synthesis, in vitro antiproliferative activity, and kinase inhibitory effects of pyrazole-containing diarylureas and diarylamides” (Eur J Med Chem, 2018).

Legend:
[1] = test system: CCRF-CEM; assay: Growth inhibition of human CCRF-CEM cells incubated for 48 hrs by sulforhodamine B assay; assay type: functional, cell-based
[2] = test system: K562; assay: Growth inhibition of human K562 cells incubated for 48 hrs by sulforhodamine B assay; assay type: functional, cell-based; conditions: K562, 48 h
[3] = test system: NCI-H460; assay: Growth inhibition of human NCI-H460 cells incubated for 48 hrs by sulforhodamine B assay; assay type: functional, cell-based; conditions: NCI-H460, 48 h
[4] = test system: KM12; assay: Growth inhibition of human KM12 cells incubated for 48 hrs by sulforhodamine B assay; assay type: functional, cell-based; conditions: KM12, 48 h
[5] = test system: Malme-3M; assay: Growth inhibition of human MALME-3M cells incubated for 48 hrs by sulforhodamine B assay; assay type: functional, cell-based
[6] = test system: UACC-62; assay: Growth inhibition of human UACC62 cells incubated for 48 hrs by sulforhodamine B assay; assay type: functional, cell-based; conditions: UACC-62, 48 h
[7] = test system: PC-3; assay: Growth inhibition of human PC3 cells incubated for 48 hrs by sulforhodamine B assay; assay type: functional, cell-based; conditions: PC-3, 48 h
[8] = test system: OVCAR-4; assay: Growth inhibition of human OVCAR4 cells assessed as cell growth at 0.01 uM incubated for 48 hrs by sulforhodamine B assay relative to control; assay type: functional; conditions: OVCAR-4, 48 h, read-out: Activity
[9] = test system: HL-60(TB); assay: Growth inhibition of human HL-60(TB) cells assessed as cell growth at 0.1 uM incubated for 48 hrs by sulforhodamine B assay relative to control; assay type: functional; conditions: HL-60, 48 h, read-out: Activity
[10] = test system: NCI-H226; assay: Growth inhibition of human NCI-H226 cells assessed as cell growth at 0.1 uM incubated for 48 hrs by sulforhodamine B assay relative to control; assay type: functional; conditions: NCI-H226, 48 h, read-out: Activity
[11] = test system: NCI-H522; assay: Growth inhibition of human NCI-H522 cells assessed as cell growth at 0.1 uM incubated for 48 hrs by sulforhodamine B assay relative to control; assay type: functional; conditions: NCI-H522, 48 h, read-out: Activity
[12] = test system: HT-29; assay: Growth inhibition of human HT-29 cells assessed as cell growth at 0.1 uM incubated for 48 hrs by sulforhodamine B assay relative to control; assay type: functional; conditions: HT-29, 48 h, read-out: Activity
[13] = test system: M14; assay: Growth inhibition of human M14 cells assessed as cell growth at 0.1 uM incubated for 48 hrs by sulforhodamine B assay relative to control; assay type: functional; conditions: M14, 48 h, read-out: Activity
[14] = test system: MDA-MB-231; assay: Growth inhibition of human MDA-MB-231 cells assessed as cell growth at 0.1 uM incubated for 48 hrs by sulforhodamine B assay relative to control; assay type: functional; conditions: MDA-MB-231, 48 h, read-out: Activity
[15] = test system: MDA-MB-468; assay: Growth inhibition of human MDA-MB-468 cells assessed as cell growth at 0.1 uM incubated for 48 hrs by sulforhodamine B assay relative to control; assay type: functional; conditions: MDA-MB-468, 48 h, read-out: Activity
[16] = test system: MOLT-4; assay: Growth inhibition of human MOLT4 cells assessed as cell growth at 1 uM incubated for 48 hrs by sulforhodamine B assay relative to control; assay type: functional; conditions: MOLT-4, 48 h, read-out: Activity
[17] = test system: A549; assay: Growth inhibition of human A549/ATCC cells assessed as cell growth at 1 uM incubated for 48 hrs by sulforhodamine B assay relative to control; assay type: functional; conditions: A549, 48 h, read-out: Activity
[18] = test system: SNB-75; assay: Growth inhibition of human SNB75 cells assessed as cell growth at 1 uM incubated for 48 hrs by sulforhodamine B assay relative to control; assay type: functional; conditions: SNB-75, 48 h, read-out: Activity
[19] = test system: U-251; assay: Growth inhibition of human U251 cells assessed as cell growth at 1 uM incubated for 48 hrs by sulforhodamine B assay relative to control; assay type: functional; conditions: U-251, 48 h, read-out: Activity
[20] = test system: OVCAR-4; assay: Growth inhibition of human OVCAR4 cells assessed as cell growth at 1 uM incubated for 48 hrs by sulforhodamine B assay relative to control; assay type: functional; conditions: OVCAR-4, 48 h, read-out: Activity
[21] = test system: MCF7; assay: Growth inhibition of human MCF7 cells assessed as cell growth at 1 uM incubated for 48 hrs by sulforhodamine B assay relative to control; assay type: functional; conditions: MCF7, 48 h, read-out: Activity
[22] = test system: MOLT-4; assay: Growth inhibition of human MOLT4 cells assessed as cell growth at 100 uM incubated for 48 hrs by sulforhodamine B assay relative to control; assay type: functional; conditions: MOLT-4, 48 h, read-out: Activity
[23] = test system: SR; assay: Growth inhibition of human SR cells assessed as cell growth at 100 uM incubated for 48 hrs by sulforhodamine B assay relative to control; assay type: functional; conditions: read-out: Activity
[24] = test system: NCI-H460; assay: Growth inhibition of human NCI-H460 cells assessed as cell growth at 100 uM incubated for 48 hrs by sulforhodamine B assay relative to control; assay type: functional; conditions: NCI-H460, 48 h, read-out: Activity
[25] = test system: HCC 2998; assay: Growth inhibition of human HCC2998 cells assessed as cell growth at 100 uM incubated for 48 hrs by sulforhodamine B assay relative to control; assay type: functional; conditions: HCC 2998, 48 h, read-out: Activity
[26] = test system: HCT-15; assay: Growth inhibition of human HCT15 cells assessed as cell growth at 100 uM incubated for 48 hrs by sulforhodamine B assay relative to control; assay type: functional; conditions: HCT-15, 48 h, read-out: Activity
[27] = test system: UACC-62; assay: Growth inhibition of human UACC62 cells assessed as cell growth at 100 uM incubated for 48 hrs by sulforhodamine B assay relative to control; assay type: functional; conditions: UACC-62, 48 h, read-out: Activity
[28] = test system: A498; assay: Growth inhibition of human A498 cells assessed as cell growth at 100 uM incubated for 48 hrs by sulforhodamine B assay relative to control; assay type: functional; conditions: A498, 48 h, read-out: Activity
[29] = read-out: LC50 (the source's name)
[30] = read-out: pLC50 (the source's name) (converted)

Structure (SMILES): COc1cc(Cl)cc(-c2nn(-c3cccc(NC(=O)Nc4cc(C(F)(F)F)cc(C(F)(F)F)c4)c3)cc2-c2ccncc2)c1
- IC50 [1]: 0.27 µM
- GI50 ([1]; read-out: GI50): 0.273 µM
- CC50 [1, 29]: > 100 µM
- TGI ([1]; read-out: TGI): 1.33 µM
- GI50 ([1]; read-out: pGI50 (converted)): 0.275 µM
- CC50 [1, 30]: > 100 µM
- TGI ([1]; read-out: pTGI (converted)): 1.35 µM
- IC50 [2]: 0.35 µM
- GI50 ([2]; read-out: GI50): 0.351 µM
- LC50 ([2]; read-out: LC50): > 100 µM
- TGI ([2]; read-out: TGI): 5.84 µM
- GI50 ([2]; read-out: pGI50 (converted)): 0.355 µM
- LC50 ([2]; read-out: pLC50 (converted)): > 100 µM
- TGI ([2]; read-out: pTGI (converted)): 5.89 µM
- IC50 [3]: 0.38 µM
- GI50 ([3]; read-out: GI50): 0.377 µM
- TGI ([3]; read-out: TGI): 1.76 µM
- GI50 ([3]; read-out: pGI50 (converted)): 0.38 µM
- CC50 [3, 30]: 17.4 µM
- TGI ([3]; read-out: pTGI (converted)): 1.78 µM
- IC50 [4]: 0.51 µM
- GI50 ([4]; read-out: GI50): 0.606 µM
- CC50 [4, 29]: 0.0279 µM
- TGI ([4]; read-out: TGI): 2.75 µM
- GI50 ([4]; read-out: pGI50 (converted)): 0.501 µM
- CC50 [4, 30]: 28.2 µM
- TGI ([4]; read-out: pTGI (converted)): 2.75 µM
- IC50 [5]: 0.53 µM
- GI50 ([5]; read-out: GI50): 0.53 µM
- CC50 [5, 29]: > 100 µM
- TGI ([5]; read-out: TGI): 3.57 µM
- GI50 ([5]; read-out: pGI50 (converted)): 0.537 µM
- CC50 [5, 30]: > 100 µM
- TGI ([5]; read-out: pTGI (converted)): 3.55 µM
- IC50 [6]: 0.36 µM
- GI50 ([6]; read-out: GI50): 0.357 µM
- CC50 [6, 29]: 0.0532 µM
- TGI ([6]; read-out: TGI): 1.5 µM
- GI50 ([6]; read-out: pGI50 (converted)): 0.355 µM
- CC50 [6, 30]: 5.37 µM
- TGI ([6]; read-out: pTGI (converted)): 1.51 µM
- IC50 [7]: 0.3 µM
- GI50 ([7]; read-out: GI50): 0.297 µM
- CC50 [7, 29]: > 100 µM
- TGI ([7]; read-out: TGI): 1.63 µM
- GI50 ([7]; read-out: pGI50 (converted)): 0.295 µM
- CC50 [7, 30]: > 100 µM
- TGI ([7]; read-out: pTGI (converted)): 1.62 µM
- growth at 0.01 µM [8]: 93%
- growth at 0.1 µM [9]: 88%
- growth at 0.1 µM [10]: 102%
- growth at 0.1 µM [11]: 80%
- growth at 0.1 µM [12]: 101%
- growth at 0.1 µM [13]: 93%
- growth at 0.1 µM [14]: 90%
- growth at 0.1 µM [15]: 89%
- growth at 1 µM [16]: 10%
- growth at 1 µM [17]: 15%
- growth at 1 µM [18]: 48%
- growth at 1 µM [19]: 11%
- growth at 1 µM [20]: 30%
- growth at 1 µM [21]: 21%
- growth at 100 µM [22]: -34%
- growth at 100 µM [23]: -8%
- growth at 100 µM [24]: -84%
- growth at 100 µM [25]: -70%
- growth at 100 µM [26]: -83%
- growth at 100 µM [27]: -71%
- growth at 100 µM [28]: -59%
